Measurements from patent US20240284910A1, “HERBICIDAL COMPOSITIONS” (SYNGENTA CROP PROTECTION AG, priority 2021, published 2024).

What was measured:
Assay type in all cases: in vivo
Settings in all cases: sprayed, evaluated after 13 days
[1] = system: Chenopodium album (CHEAL); assay: Post-emergence glasshouse phytotoxicity test, CHEAL
Procedure: (§1) Seeds of Chenopodium album (CHEAL), Ipomoea hederacea (IPOHE), Amaranthus retroflexus (AMARE) and Abutilon threophrasti (ABUTH) and Stellaria media (STEME) were sown in standard sterilised soil in pots. After cultivation for 8 days under controlled conditions in a glasshouse (at 24/19° C., day/night; 16 hours light; no humidity control), the plants were sprayed at 500 I/Ha with an aqueous spray solution derived from the formulation of the technical active ingredients in a small amount of acetone and a solvent and emulsifier mixture referred to as IF50 (11.12% Emulsogen EL360 TM+44.44% N-methylpyrrolidone+44.44% Dowanol DPM glycol ether), to create a 50 g/l solution which was then diluted using 0.2% Genapol XO80 (CAS Number: 9043-30-5) as diluent to give the desired final dose of test compound. Where active ingredients were applied as mixtures, aqueous spray solutions were prepared as above, containing both active ingredients. The test plants were then grown under controlled conditions in a glasshouse (at 24/18° C., day/night; 15 hours light; 50% humidity) and watered twice daily. After 13 days, the test was evaluated visually for percentage phytotoxicity to the plants (where 100=total damage to plant; 0=no damage to plant) when compared to control untreated plants. Two to four replicates were applied for each treatment in a randomised block test design.
(§2) 22., E=X+Y−(X*Y/100), where • X=average percent phytotoxicity of herbicide A when applied at a certain rate • Y=average percent phytotoxicity using herbicide B when applied at a certain rate • E=the expected effect of the mixture of herbicides A and B as calculated from the Colby formula.

[2] = system: Amaranthus retroflexus (AMARE); assay: Post-emergence glasshouse phytotoxicity test, AMARE
Procedure: as §1, §2

[3] = system: Ipomoea hederacea (IPOHE); assay: Post-emergence glasshouse phytotoxicity test, IPOHE
Procedure: as §1, §2

Stellaria media (STEME) = assay: Post-emergence glasshouse phytotoxicity test, STEME
Procedure: as §1, §2

[4] = system: Abutilon threophrasti (ABUTH); assay: Post-emergence glasshouse phytotoxicity test, ABUTH
Procedure: as §1, with “Where active ingredients were applied as mixtures, aqueous spray solutions were prepared as above, containing both active ingredients. The test plants were then grown under controlled conditions in a glasshouse (at 24/18° C., day/night; 15 hours light; 50% humidity) and watered twice daily.” left out, “Two to four replicates were applied for each treatment in a randomised block test design.” left out
as §2

SMILES	Observed (O) percentage phytotoxicity ([1]; rate 6.25 g/ha) [%]	Observed (O) percentage phytotoxicity ([1]; rate 12.5 g/ha) [%]	Observed (O) percentage phytotoxicity ([2]; rate 6.25 g/ha) [%]	Observed (O) percentage phytotoxicity ([2]; rate 25 g/ha) [%]	Observed (O) percentage phytotoxicity ([3]; rate 6.25 g/ha) [%]	Observed (O) percentage phytotoxicity ([3]; rate 12.5 g/ha) [%]	Observed (O) percentage phytotoxicity (Stellaria media (STEME); rate 6.25 g/ha) [%]	Observed (O) percentage phytotoxicity (Stellaria media (STEME); rate 12.5 g/ha, 100=total damage, 0=no damage) [%]	Observed (O) percentage phytotoxicity ([4]; rate 12.5 g/ha) [%]	Observed (O) percentage phytotoxicity ([1]; rate 0.31 g/ha) [%]	Observed (O) percentage phytotoxicity ([2]; rate 0.31 g/ha) [%]	Observed (O) percentage phytotoxicity ([3]; rate 0.16 g/ha) [%]	Observed (O) percentage phytotoxicity (Stellaria media (STEME); rate 0.16 g/ha) [%]	Observed (O) percentage phytotoxicity (Stellaria media (STEME); rate 0.31 g/ha) [%]	Observed (O) percentage phytotoxicity ([4]; rate 0.31 g/ha) [%]
CN1C[C@H](c2cccc(C(F)(F)F)c2)[C@@H](C(=O)Nc2ccccc2F)C1=O [I-A]	0	28	0	8	25	38	33	58	10	–	–	–	–	–	–
Cc1nnc(NC(=O)c2ccc(C(F)(F)F)n3c(CS(=O)(=O)C(C)C)nnc23)o1 [II]	–	–	–	–	–	–	–	–	–	24	5	4	13	6	34
